Experimental data taken from the supplement of paper PMC5579334.

Columns and labels:
HS-PSS [1] = test: relative IC50 (inflection point of fitted dose-response curve, CellTox-Green cytotoxicity, 72 h; top asymptote may be below 50%); higher = less potent
Method in brief: (§1)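 MPNST cell lines and primary human Schwann cells were incubated 72 h at 37 °C in 384-well plates holding five 10-fold compound dilutions. CellTox-Green was added before seeding at a final 1:1000 dilution and reported fluorescence from DNA released by disrupted cells. Signals were scaled to vehicle and positive-control wells, and cultures failing plate quality control were dropped. Drug sensitivity score and relative IC50 come from four-parameter logistic fits, with IC50 censored at the top concentration.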

S1507-2 [2] = test: as above
Method in brief: as §1

HSC1 [3] = test: as above
Method in brief: as §1

HSC2 [4] = test: as above
Method in brief: as §1

STS26T [5] = test: as above
Method in brief: as §1

ST8814 [6] = test: as above
Method in brief: as §1

HS-PSS [7] = test: relative IC50 (inflection point of fitted dose-response curve, CellTiter-Glo viability, 72 h; top asymptote may be below 50% inhibition); higher = less potent
Method in brief: (§2)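 Viability was scored by CellTiter-Glo ATP luminescence, scaled from vehicle to positive-control wells, with duplicates averaged where present. The cells, MPNST lines and primary human Schwann cells at 750–1000 per well, sat 72 h at 37 °C, 5% CO2, in 384-well plates preprinted with each compound at five concentrations in 10-fold steps. Four-parameter logistic fits were run on the data. These fits give drug sensitivity score and relative IC50 censored at the top concentration, and percent inhibition is reported at the top concentration.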

S1507-2 [8] = test: as above
Method in brief: as §2

HSC1 [9] = test: as above
Method in brief: as §2

S462 = test: as above
Method in brief: as §2

HSC2 [10] = test: as above
Method in brief: as §2

YST-1 = test: as above
Method in brief: as §2

STS26T [11] = test: as above
Method in brief: as §2

HS-Sch-2 = test: as above
Method in brief: as §2

ST8814 [12] = test: as above
Method in brief: as §2

Row | SMILES | relative IC50 (HS-PSS [1]) | relative IC50 (S1507-2 [2]) | relative IC50 (HSC1 [3]) | relative IC50 (HSC2 [4]) | relative IC50 (STS26T [5]) | relative IC50 (ST8814 [6]) | relative IC50 (HS-PSS [7]) | relative IC50 (S1507-2 [8]) | relative IC50 (HSC1 [9]) | relative IC50 (S462) | relative IC50 (HSC2 [10]) | relative IC50 (YST-1) | relative IC50 (STS26T [11]) | relative IC50 (HS-Sch-2) | relative IC50 (ST8814 [12])
1 | Oc1ncnc2[nH]ncc12 [Allopurinol] | > 10000 nM | > 10000 nM | > 10000 nM | > 10000 nM | > 10000 nM | > 10000 nM | > 10000 nM | > 10000 nM | > 10000 nM | > 10000 nM | > 10000 nM | > 10000 nM | > 10000 nM | > 10000 nM | > 10000 nM
2 | Nc1ccccc1NC(=O)c1ccc(CNc2nccc(-c3cccnc3)n2)cc1 [Mocetinostat] | 2650 nM | 3730 nM | 3390 nM | 2710 nM | 1720 nM | 3100 nM | 2200 nM | 1840 nM | 921 nM | 354 nM | 818 nM | 530 nM | 1400 nM | 1400 nM | 1610 nM
3 | C[C@@]1(C(=O)Nc2ccc(F)nc2)CCCN1c1nc(Nc2cc(C3CC3)n[nH]2)c2cccn2n1 | 3330 nM | 1650 nM | 2360 nM | 1400 nM | 279 nM | 312 nM | 1650 nM | 495 nM | 441 nM | 307 nM | 308 nM | 18.2 nM | 663 nM | 1150 nM | 534 nM
4 | CCCCCCCCc1ccc(CCC(N)(CO)CO)cc1 [Fingolimod] | 3160 nM | 1600 nM | 1950 nM | 2220 nM | 3340 nM | 3430 nM | 1890 nM | 2030 nM | 2150 nM | 3070 nM | 2340 nM | 2940 nM | 2620 nM | 2480 nM | 2770 nM
5 | CC(C)C[C@H](NC(=O)[C@H](Cc1ccccc1)NC(=O)c1cnccn1)B(O)O [Bortezomib] | 123 nM | 8.94 nM | 22.6 nM | 21.4 nM | 11.2 nM | 9.88 nM | 51.1 nM | 10.1 nM | 7.32 nM | 5.87 nM | 6.64 nM | 10.1 nM | 11 nM | 3.47 nM | 6.3 nM
6 | Cc1cc2c(F)c(Oc3ncnn4cc(OC[C@@H](C)O)c(C)c34)ccc2[nH]1 [Brivanib] | > 1000 nM | > 1000 nM | > 1000 nM | > 1000 nM | > 1000 nM | > 1000 nM | > 1000 nM | > 1000 nM | > 1000 nM | > 1000 nM | > 1000 nM | > 1000 nM | > 1000 nM | > 1000 nM | > 1000 nM
7 | CO[C@H]1C[C@@H]2CC[C@@H](C)[C@@](O)(O2)C(=O)C(=O)N2CCCC[C@H]2C(=O)O[C@H]([C@H](C)C[C@@H]2CC[C@@H](OP(C)(C)=O)[C@H](OC)C2)CC(=O)[C@H](C)/C=C(\C)[C@@H](O)[C@@H](OC)C(=O)[C@H](C)C[C@H](C)/C=C/C=C/C=C/1C [Ridaforolimus] | > 100 nM | > 100 nM | > 100 nM | > 100 nM | > 100 nM | > 100 nM | 1.87 nM | 1.55 nM | 0.221 nM | 1.26 nM | 0.319 nM | 1.02 nM | 0.663 nM | 2.85 nM | 0.496 nM
8 | O=C(Cc1ccc(-c2ccc(OCCN3CCOCC3)cc2)cn1)NCc1ccccc1 [KX2-391] | > 10000 nM | 30.2 nM | 112 nM | 139 nM | 23.6 nM | 33.8 nM | 163 nM | 46.7 nM | 52.3 nM | 34.3 nM | 73 nM | 49.1 nM | 29.4 nM | 30.5 nM | 36.4 nM
9 | CCN(CC)CCOc1ccc(/C(=C(/Cl)c2ccccc2)c2ccccc2)cc1 [Clomifene] | 2990 nM | 3540 nM | > 10000 nM | 2030 nM | 2840 nM | 2560 nM | 2290 nM | 2470 nM | 1140 nM | 2450 nM | 2440 nM | 3930 nM | 2520 nM | 3360 nM | 2540 nM
10 | C/C(=C\c1csc(C)n1)[C@@H]1C[C@@H]2O[C@]2(C)CCC[C@H](C)[C@H](O)[C@@H](C)C(=O)C(C)(C)[C@@H](O)CC(=O)N1 [Ixabepilone] | > 1000 nM | 370 nM | 283 nM | 354 nM | 316 nM | 341 nM | 392 nM | 332 nM | 115 nM | 335 nM | 248 nM | 361 nM | 350 nM | 313 nM | 363 nM
11 | C=CCNC1=C2C[C@@H](C)C[C@H](OC)[C@H](O)[C@@H](C)/C=C(\C)[C@H](OC(N)=O)[C@@H](OC)/C=C\C=C(/C)C(=O)NC(=CC1=O)C2=O [Tanespimycin] | 460 nM | 397 nM | 321 nM | 258 nM | 160 nM | 729 nM | 157 nM | 170 nM | 421 nM | 310 nM | 380 nM | 49.4 nM | 108 nM | 128 nM | 158 nM
12 | CO[C@H]1/C=C\C=C(/C)C(=O)NC2=CC(=O)C(NCCN(C)C)=C(C[C@@H](C)C[C@H](OC)[C@H](O)[C@@H](C)/C=C(\C)[C@@H]1OC(N)=O)C2=O [Alvespimycin] | 49 nM | 106 nM | 198 nM | 187 nM | 95.7 nM | 106 nM | 45.5 nM | 78.4 nM | 132 nM | 48.1 nM | 134 nM | 24.4 nM | 72 nM | 47.3 nM | 54.9 nM
